Measurements reported in US9657110B2, “Polypeptides and use thereof” (ASTON UNIVERSITY, priority 2011, dated 2017).
Changes are numbered by the printed parent chain. Names may count otherwise.

Assays:
HOB cells = test: Cell adhesion assay (attachment and spreading) on FN or TG-FN matrix with RGD or RAD peptide; type: cell-based, human; settings: for effect of PKCα inhibitors on the compensatory effect of P1 peptide on RGD-induced loss of cell adhesion: Go6976 5 μM, GK21 8 μM, P1 100 ug/ml, FN; for effect on the compensatory effects of TG-FN on attachment and spreading in the presence of RGD: HOB cells on TG-FN, peptide 100-400 μg/ml, RGD 150 μg/ml
Method: The cell adhesion assay was carried out as previously described (Wang et al., 2010). Briefly, 96-well plastic tissue culture plates were coated with 5 μg/ml FN in 50 mM Tris-HCl, pH 7.4 at 4° C. overnight, after washing three times with 100 μl of 50 mM Tris-HCl, pH7.4, gplTG (20 μg/ml) in 2 mM EDTA in PBS, pH 7.4 was added to the wells for 1 h at 37° C. and the wells were washed three times with 50 mM Tris-HCl, pH7.4. Serum-starved (for 16 h) HOB cells with different treatments as introduced below in serum-free medium were detached by trypsinization and then treated with trypsin inhibitor. Cells were washed three times with serum free medium and seeded onto either FN or TG-FN matrix for 20-40 min. Peptides P1 or scrambled P1 (P1s), were added at concentrations between 100 μg/ml and 300 μg/ml. […] Attached cells were washed once with PBS, pH 7.4 and then fixed with 3.7% paraformaldehyde, further permeabilised with 0.1% (v/v) Triton® X-100 detergent in PBS, and co-stained with May-Grunwald and Giemsa stains as described previously (Jones et al., 1997). Images of stained cells from non-overlapping fields of view were photographed at 20× magnification and analyzed using the imaging analysis program Scion Image (National Institute of Health). Cell attachment and spreading were quantified, and the number of cells per image was assessed as described previously (Telci et al., 2008). Cell attachment on FN without peptide was considered as the control value for all the experiments unless stated otherwise. The mean number of attached cells form three wells was calculated and that of the control was considered as 100%. The mean number of attached cells (cell attachment) for each sample was then expressed as the percentage of cell attachment on FN. The mean percentage of attached cells that are spread (cell spreading) for each sample was determined separately, and the mean percentage of spread cells on FN control was expressed as 100%. The mean percentage of spread cells for each sample was then normalised against that of FN control Cell attachment on FN without the RGD peptide was considered as the control value for most of the experiments unless stated otherwise The mean number of attached cells from three wells was calculated and that of the control was considered as 100%. The mean number of attached cells (cell attachment) for each sample was then expressed as the percentage of cell attachment on FN. The mean percentage of attached cells that are spread (cell spreading) for each sample was determined separately, and the mean percentage of spread cells on the FN control was expressed as 100%. The mean percentage of spread cells for each sample was then normalised against that of FN control Cell pre-treatments included: PKCα inhibitor Go6976 (5 μM) or GK21 peptide (8 μM) for 1 h in serum-free medium prior to cell detachment; heparinase (15 mU/ml) or chondroitinase (15 mU/ml) to cells in suspension in serum free medium for 1 h. For the detection of the signalling molecules via Western blotting, the cell adhesion assay was performed in 60 mm Petri dishes and cells were collected into cell lysis buffer (Santa Cruz, UK) as described previously and pre-cleared by centrifugation at 300×g for 10 min. Western blotting was performed with specific anti-p-397 FAK or p-ERK1/2 antibodies. Membranes were stripped (Telci et al., 2008) and total FAK and ERK1/2 detected using anti-FAK and anti-ERK1/2 antibodies as listed in Table 2, while α-tubulin was used as an equal loading standard (Wang et al., 2011).
Cell adhesion and spreading assays were performed as described above in Example 1 method ‘Cell adhesion assay’

[1] = Binding of TG2 to heparin SEPHAROSE, elution with NaCl gradient; settings: for binding to heparin SEPHAROSE (in words): compared with wt TG2; for NaCl concentration of optimum elution / major peak from heparin SEPHAROSE: lysate of HEK293T/17 cells, 0-1M NaCl gradient
Method: HEK cells, transiently transfected with wild-type and mutant TG2 were washed twice with ice cold PBS, pH 7.4 and lysed by the addition of 150 μl of 20 mM Tris-HCl pH 7.4, 10 mM EGTA, 2 mM EDTA, 1 mM NaF and 1 mM Na3VO4. After clarification by centrifugation, lysates were mixed with 450 μl of 50 mM Tris-HCl, 1 mM EDTA, 1 mM DTT, pH 7.5 and applied to a 5 ml Heparin SEPHAROSE® column (GE Healthcare) equilibrated in 50 mM Tris-HCl, 1 mM EDTA, 1 mM DTT pH 7.5 (buffer) at a flow rate of 1 ml/min. For the analysis of GTP-bound TG2 (closed conformation), lysates were pre-incubated for 1 h at room temperature with 0.5 mM GTP in 50 mM Tris-HCl, 2 mM MgCl2, 1 mM EDTA, 1 mM DTT pH 7.5. For the analysis of inhibitor-reacted TG2 (open conformation), lysates were incubated with 0.5 mM of irreversible inhibitor R281 (Griffin et al., 2008) and 10 mM CaCl2. The column was washed with 25 ml of buffer and protein was eluted with a linear gradient of increasing NaCl concentration (0-1M) in buffer. Fractions were assayed for TG2 activity and analysed for the presence of TG2 antigen by SDS-PAGE and Western blotting using CUB7402.

NIH 3T3 cells = test: Detection of TG2 at cell surface (biotinylation), in ECM and in culture medium of transfected cells; type: cell-based, mouse; settings: transfected NIH 3T3 cells; for presence on the cell surface: biotinylation and Western blot, vs wild-type TG2
Method: Cell surface proteins were labelled by biotinylation as described previously (Wang et al., 2010). Briefly, cell monolayers were rinsed three times with ice-cold PBS pH 8.0 and labelled with 0.8 mM sulfo-NHS-LC-biotin dissolved in PBS pH 8.0 at 4° C. for 20 min. Cells were then washed with 50 mM Tris-HCl, pH 8.0 and lysed with 1% SDS at 4° C. in PBS pH8.0. Following denaturation at 95° C., cell lysates were clarified by centrifugation at 14,000×g at 20° C. and 200 μg of protein was incubated overnight at 4° C. with NEUTRAVIDIN® avidin protein-Agarose resin. After washing three times with PBS pH 8.0, the biotin-labelled proteins were dissolved in 2× Laemmli buffer separated by SDS-PAGE and subjected to Western blotting.
Following transfection, cells were incubated for 24 h with 10% (v/v) serum, which was replaced with 1% (v/v) serum and TG2 expression was allowed to proceed for a further 48 h. Proteins from 1 ml of medium were precipitated by the addition of ice cold 20% (w/v) trichloroacetic acid (TCA) to a final concentration of 10% (w/v) Pelleted proteins were then washed once with ice cold 10% (w/v) TCA, ethanol-acetone (1:1) and acetone, and resuspended in 2× Laemmli buffer (Sigma-Aldrich, UK) and analysed by SDS-PAGE and Western blot analysis using monoclonal anti-TG2 antibody (Cub7402). The remaining cells were detached with 2 mM EDTA in PBS, pH 7.4 and the ECM was extracted with 0.1% (w/v) deoxycholate in PBS, pH 7.4. The residual deoxycholate-insoluble ECM proteins were dissolved in 2× Laemmli buffer for further analysis by SDS-PAGE and Western blotting using Cub7402.

## Cn1c2ccccc2c2c3c(c4c5ccccc5n(CCC#N)c4c21)CNC3=O [Go6976, reference compound]
HOB cells
  effect of PKCα inhibitors on the compensatory effect of P1 peptide on RGD-induced loss of cell adhesion: inhibition of the compensatory effect

## NPKFLKNA (listed as Homo sapiens) [fragment peptide derived from P1]
HOB cells
  effect on the compensatory effects of TG-FN on attachment and spreading in the presence of RGD: could not abrogate
HOB cells; HOB cells, tested 100-400 μg/ml
  concentration at which peptide was inhibitory to cell attachment and spreading: above 200 μg/ml

## GENPIYKSAVTTVVNPIYEGKRQIKIWFQNRRMKWKK (listed as Homo sapiens) [GK21, reference compound]
HOB cells
  effect of PKCα inhibitors on the compensatory effect of P1 peptide on RGD-induced loss of cell adhesion: inhibition of the compensatory effect

## GRDCSRRSS (listed as Homo sapiens) [fragment peptide derived from P1]
HOB cells
  effect on the compensatory effects of TG-FN on attachment and spreading in the presence of RGD: able to inhibit the compensatory effects of TG-FN on attachment and spreading, in a dose-dependent manner

## HS2: TG2 mutant K205A, R209A (NPKFLKNAGRDCSRRSS)
[1]
  binding to heparin SEPHAROSE (in words): lost the capability to bind with high affinity to heparin
  NaCl concentration of optimum elution / major peak from heparin SEPHAROSE: 60 mM NaCl
NIH 3T3 cells; Western blot
  presence in spent culture medium: detectable
  presence in the ECM: not detectable
NIH 3T3 cells
  presence on the cell surface: detected but in reduced amounts

B1: TG2: wild type human tissue transglutaminase expressed in transfected cells (protein)
chain: AEELVLERCDLELETNGRDHHTADLCREKLVVRRGQPFWLTLHFEGRNYEASVDSLTFSVVTGPAPSQEAGTKARFPLRDAVEEGDWTATVVDQQDCTLSLQLTTPANAPIGLYRLSLEASTGYQGSSFVLGHFILLFNAWCPADAVYLDSEEERQEYVLTQQGFIYQGSAKFIKNIPWNFGQFEDGILDICLILLDVNPKFLKNAGRDCSRRSSPVYVGRVVSGMVNCNDDQGVLLGRWDNNYGDGVSPMSWIGSVDILRRWKNHGCQRVKYGQCWVFAAVACTVLRCLGIPTRVVTNYNSAHDQNSNLLIEYFRNEFGEIQGDKSEMIWNFHCWVESWMTRPDLQPGYEGWQALDPTPQEKSEGTYCCGPVPVRAIKEGDLSTKYDAPFVFAEVNADVVDWIQQDDGSVHKSINRSLIVGLKISTKSVGRDEREDITHTYKYPEGSSEEREAFTRANHLNKLAEKEETGMAMRIRVGQSMNMGSDFDVFAHITNNTAEEYVCRLLLCARTVSYNGILGPECGTKYLLNLNLEPFSEKSVPLCILYEKYRDCLTESNLIKVRALLVEPVINSYLLAERDLYLENPEIKIRILGEPKQKRKLVAEVSLQNPLPVALEGCTFTVEGAGLTEEQKTVEIPDPVEAGEEVKVRMDLLPLHMGLHKLVVNFESDKLKAVKGFRNVIIGPA
[1]; 0.5 mM GTP, compact conformation
  NaCl concentration of major peak from heparin SEPHAROSE in the presence of GTP: about 330 mM NaCl
[1]; 0.5 mM R281, extended conformation
  NaCl concentration of major peak from heparin SEPHAROSE after reaction with inhibitor R281: 250 mM NaCl
[1]
  NaCl concentration of optimum elution / major peak from heparin SEPHAROSE: 330 mM NaCl

B2: HS1: TG2 mutant K600A, R601A, K602A (protein, UniProt P21980 2-687, looked up, variant K600A R601A K602A)
Protein-glutamine …: B1 chain with K599A, R600A, K601A
[1]
  binding to heparin SEPHAROSE (in words): bound heparin identically to TG2
NIH 3T3 cells
  presence on the cell surface: greater levels

B3: C277S: TG2 active site mutant, extended conformation (protein, UniProt P21980 2-687, looked up, variant C277S)
Protein-glutamine …: B1 chain with C276S
[1]
  NaCl concentration of optimum elution / major peak from heparin SEPHAROSE: 250 mM NaCl
